pIC50: −log10 of the molar value.
Columns and labels:
[1] = Distribution coefficient, logD of compound at pH 7.4; type: physicochemical; settings: octanol/water
[2] = biological target: T1, Receptor-type tyrosine-protein kinase FLT3 (Homo sapiens, UniProt P36888); assay: Inhibition of His6/TEV fused-GST-tagged Flt3 (unknown origin) (H564 to S993 residues) using Axltide (CKKSRGDYMTMQJ-acid) peptide as substrate preincubated for 30 mins followed by substrate and ATP addition at Km concentration measured after 75 mins by RapidFire LC-MS analysis
T1 sequence (P36888 whole entry): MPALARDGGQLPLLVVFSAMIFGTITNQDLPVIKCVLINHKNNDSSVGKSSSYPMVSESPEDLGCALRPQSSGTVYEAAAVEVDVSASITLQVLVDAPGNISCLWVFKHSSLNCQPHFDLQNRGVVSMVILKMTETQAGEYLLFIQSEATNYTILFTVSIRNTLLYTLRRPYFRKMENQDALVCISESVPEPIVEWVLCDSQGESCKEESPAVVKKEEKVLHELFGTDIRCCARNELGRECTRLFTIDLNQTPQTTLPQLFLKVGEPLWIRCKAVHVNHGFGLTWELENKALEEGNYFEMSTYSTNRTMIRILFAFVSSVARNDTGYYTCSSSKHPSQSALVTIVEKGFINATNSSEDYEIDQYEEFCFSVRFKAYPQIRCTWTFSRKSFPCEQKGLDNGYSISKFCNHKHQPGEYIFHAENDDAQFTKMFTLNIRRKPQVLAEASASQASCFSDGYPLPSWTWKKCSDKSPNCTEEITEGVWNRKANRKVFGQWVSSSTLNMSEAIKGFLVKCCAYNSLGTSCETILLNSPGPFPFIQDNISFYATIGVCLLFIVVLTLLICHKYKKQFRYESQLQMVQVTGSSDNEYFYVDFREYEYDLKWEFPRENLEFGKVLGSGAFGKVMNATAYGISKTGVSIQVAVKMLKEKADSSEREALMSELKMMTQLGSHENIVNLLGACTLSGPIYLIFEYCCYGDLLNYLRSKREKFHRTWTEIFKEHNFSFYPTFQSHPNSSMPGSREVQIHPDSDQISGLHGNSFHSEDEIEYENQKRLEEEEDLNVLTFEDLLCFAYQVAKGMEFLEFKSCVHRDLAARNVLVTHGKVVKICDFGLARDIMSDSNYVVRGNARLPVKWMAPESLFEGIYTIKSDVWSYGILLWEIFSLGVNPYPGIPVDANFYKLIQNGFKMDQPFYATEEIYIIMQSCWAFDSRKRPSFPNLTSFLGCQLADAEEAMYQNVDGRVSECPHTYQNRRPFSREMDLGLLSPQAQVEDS

[3] = biological target: T2, Tyrosine-protein kinase receptor TYRO3 (Homo sapiens, UniProt Q06418); assay: Inhibition of GST-tagged Tyro3 (unknown origin) (453 to 890 residues) using Axltide (KKSRGDYMTMQIG-acid) peptide as substrate preincubated for 30 mins followed by substrate and ATP addition at Km concentration measured after 180 mins by RapidFire LC-MS analysis
T2 sequence (Q06418 whole entry): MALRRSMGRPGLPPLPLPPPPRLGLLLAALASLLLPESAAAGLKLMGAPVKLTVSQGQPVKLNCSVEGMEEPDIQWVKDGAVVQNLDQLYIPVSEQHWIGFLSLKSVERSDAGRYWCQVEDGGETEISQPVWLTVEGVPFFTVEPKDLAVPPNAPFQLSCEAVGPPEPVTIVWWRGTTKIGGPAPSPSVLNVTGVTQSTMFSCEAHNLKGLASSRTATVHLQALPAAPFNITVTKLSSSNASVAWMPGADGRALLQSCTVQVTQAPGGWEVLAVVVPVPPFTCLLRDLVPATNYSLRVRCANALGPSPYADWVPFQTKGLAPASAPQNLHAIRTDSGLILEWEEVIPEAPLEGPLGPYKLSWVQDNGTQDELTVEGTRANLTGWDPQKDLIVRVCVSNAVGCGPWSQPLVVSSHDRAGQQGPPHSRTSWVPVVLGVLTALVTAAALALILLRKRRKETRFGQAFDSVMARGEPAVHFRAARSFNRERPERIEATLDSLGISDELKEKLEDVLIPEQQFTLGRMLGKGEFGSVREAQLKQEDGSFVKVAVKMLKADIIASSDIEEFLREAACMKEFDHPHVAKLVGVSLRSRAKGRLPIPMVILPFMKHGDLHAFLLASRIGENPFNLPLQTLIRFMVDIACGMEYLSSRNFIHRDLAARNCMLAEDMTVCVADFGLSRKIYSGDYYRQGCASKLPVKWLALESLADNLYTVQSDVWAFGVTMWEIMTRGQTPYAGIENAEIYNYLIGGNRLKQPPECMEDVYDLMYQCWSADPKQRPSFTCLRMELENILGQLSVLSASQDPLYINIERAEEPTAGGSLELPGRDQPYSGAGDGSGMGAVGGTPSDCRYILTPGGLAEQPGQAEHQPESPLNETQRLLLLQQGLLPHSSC

[4] = species: Homo sapiens; assay: Selectivity ratio of pIC50 for His6/TEV fused-GST-tagged Flt3 (unknown origin) (H564 to S993 residues) to pIC50 for 6His/thrombin cleavage site-fused Avi-tagged dephosphorylated MER (unknown origin) (R528 to M999 residues)
[5] = species: Homo sapiens; assay: Selectivity ratio of pIC50 for His6/TEV fused-GST-tagged Flt3 (unknown origin) (H564 to S993 residues) to pIC50 for GST-tagged AXL (unknown origin) ([…] residues)

Compound: CNc1nc(OCC2CCC2)nc2c1ncn2Cc1c(F)cccc1F
- logD [1]: 4.4
- pIC50 [2]: < 4.30
- pIC50 [3]: 5.50

Compound: Cc1cc(N(C)C)ccc1-c1nnc(N(C)Cc2ccc3nccn3c2)o1
- logD [1]: 3.2
- pIC50 [2]: 4.50
- pIC50 [3]: < 4.00

Compound: O=S(=O)(c1ccc(Nc2ncc(N3CCOCC3)c(Nc3ccccc3)n2)cc1)N1CCCCC1
- logD [1]: 4.5
- pIC50 [2]: < 4.40
- pIC50 [3]: 5.20

Compound: CNC(=O)c1sc(N2CC3CC2(CNC(=O)c2c[nH]c4ncccc24)C3)nc1C(F)(F)F
- logD [1]: 3.1
- pIC50 [2]: 5.30
- pIC50 [3]: 5.70

Compound: Cc1c(C(=O)Nc2ccc(Oc3ccnc4[nH]cc(-c5ccccc5)c34)c(F)c2)c(=O)n(-c2ccc(F)cc2)n1C
- logD [1]: > 5
- pIC50 [2]: 7.20
- pIC50 [3]: 8.00

Compound: CNC(=O)c1sc(N2CC3CC2(CNC(=O)c2c[nH]c4ncc(Cl)cc24)C3)nc1C(F)(F)F
- logD [1]: 4
- Ratio pIC50 [4]: > 60
- pIC50 [2]: 5.80
- pIC50 [3]: 6.20
- Ratio pIC50 [5]: > 60

Compound: CN(Cc1ccc2nccn2c1)c1nnc(-c2ncc(C(F)(F)F)cc2Cl)o1
- logD [1]: 2.6
- pIC50 [2]: < 4.00
- pIC50 [3]: < 4.00

Compound: CCn1c(-c2nnc(N(C)Cc3ccc4nccn4c3)o2)nc2ccccc21
- logD [1]: 3
- pIC50 [2]: 5.20
- pIC50 [3]: 4.40

Compound: CN(Cc1ccc2nccn2c1)c1nnc(-c2ccc(-c3ccccc3Cl)nc2)o1
- logD [1]: 3.3
- pIC50 [2]: 4.80
- pIC50 [3]: 4.70

Compound: CN(Cc1ccc2nccn2c1)c1nnc(-c2ccc(OC3CCCC3)cc2)o1
- logD [1]: 4.1
- pIC50 [2]: 4.70
- pIC50 [3]: 4.10

Compound: CNC(=O)c1sc(N2CC3CC2(CNC(=O)c2c[nH]c4ncc(C(F)(F)F)cc24)C3)nc1C(F)(F)F
- logD [1]: 4.2
- pIC50 [2]: < 4.00
- pIC50 [3]: < 4.00

Compound: CN(Cc1ccc2nccn2c1)c1nnc(-c2ccc(-c3ccccc3Cl)cc2)o1
- logD [1]: 4.8
- pIC50 [2]: 4.80
- pIC50 [3]: 5.00

Compound: CN(Cc1ccc2c(c1)CCCO2)c1nnc(-c2ccc(-c3ccccc3Cl)cc2)o1
- logD [1]: > 5.6
- pIC50 [2]: < 4.00
- pIC50 [3]: < 4.00

Compound: COc1cc2ncnc(Nc3cnc(OCCC4CC4)nc3)c2cc1OCC1CCNCC1
- logD [1]: 1.4
- pIC50 [2]: < 4.30
- pIC50 [3]: 5.70

Compound: C[C@@H]1CN(c2cnc(Nc3cc(F)c(OCC4CC4)c(F)c3)nc2NC2CCOCC2)CCN1
- logD [1]: 3.2
- pIC50 [2]: 5.00
- pIC50 [3]: 6.60

Compound: CNC(=O)c1sc(N2CC3CC2(CNC(=O)c2c[nH]c4ncc(C)cc24)C3)nc1C(F)(F)F
- logD [1]: 3.5
- pIC50 [2]: 5.80
- pIC50 [3]: 6.00

Compound: CNC(=O)C[C@@H](NC(=O)[C@@H](CCc1ccccc1)NC(=O)c1c(C)noc1-c1snnc1C)c1ccc(C(F)(F)F)cc1
- logD [1]: 4.2
- pIC50 [2]: < 4.00
- pIC50 [3]: 7.50
